In BindingDB's records for patent US10370339 (Bayer Pharma Aktiengesellschaft, 2019):

target: Isocitrate dehydrogenase [NADP] cytoplasmic [R132H] (Homo sapiens, UniProt O75874, R132H); assay: Biological Assay
Experimental: Mutant IDH1 R132H Biochemical Assay mIDH1 catalyzes the NADPH-dependent reduction of alpha-ketoglutarate (a-KG) to (2R)-2-hydroxyglutarate (2-HG). NADPH consumption was measured by luminescent readout.The biochemical reactions were performed at 32° C. in 384-well plates using a reaction volume of 41 μL and the following assay buffer conditions: 50 mM Tris pH 7.5, 100 mM NaCl, 20 mM MgCl2, 0.05% BSA, 0.01% Brij, 1 μM NADPH, and 250 μM α-KG. The IDH1 R132H enzyme was used in a final concentration of 1.5 nM. Test compounds were used in a concentration range between 0.002 and 10 μM. The final DMSO concentration was 2.4%.The reaction was incubated for 30 minutes, then 40 μL of detection mix (0.75 μg/ml Luciferase, 0.02 U/ml Oxidoreductase, 4 μg/mL FMN, 2 μL/ml decanal/ethanol, 50 mM Tris pH 7.5, 0.5% Glycerin, 0.01% Tween-20, 0.05% BSA) was added. Luminescence was measured on a luminescent reader (10 seconds measuring time, 1 second integration period, 30% sensitivity). The decrease in luminescence is proportional to mIDH1 activity. IC50 values are determined by interpolation from plots of relative luminescence versus inhibitor concentration.

Isocitrate dehydrogenase [NADP] cytoplasmic [R132H], sequence (O75874 2-414 R132H limits assumed): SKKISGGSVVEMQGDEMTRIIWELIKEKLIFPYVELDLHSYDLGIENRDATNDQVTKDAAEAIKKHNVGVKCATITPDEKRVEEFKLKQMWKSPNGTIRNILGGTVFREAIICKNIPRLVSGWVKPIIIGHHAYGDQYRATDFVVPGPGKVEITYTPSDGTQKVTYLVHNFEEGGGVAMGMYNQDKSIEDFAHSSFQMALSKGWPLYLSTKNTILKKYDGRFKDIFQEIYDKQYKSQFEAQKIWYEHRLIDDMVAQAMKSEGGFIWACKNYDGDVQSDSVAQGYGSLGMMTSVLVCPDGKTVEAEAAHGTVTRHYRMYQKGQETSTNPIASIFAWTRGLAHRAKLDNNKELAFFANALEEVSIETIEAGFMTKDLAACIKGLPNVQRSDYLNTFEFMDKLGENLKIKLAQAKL

IC50	Compound
15 nM	COc1cc2c(cc1C(=O)O)nc(Nc1ccc(OC(C)C)cc1)n2[C@@H]1C[C@H](C)CC[C@H]1C(C)C [US10370339, Example 2-30]
14 nM	CC(C)[C@@H]1CC[C@@H](C)C[C@H]1n1c(Nc2ccc(OC(F)(F)F)cc2)nc2cc(CC(=O)O)ccc21 [US10370339, Example 2-31]
11 nM	COc1cc2c(cc1CCC(=O)O)nc(Nc1ccc(C(C)C)cc1)n2[C@@H]1C[C@H](C)CC[C@H]1C(C)C [US10370339, Example 2-48]
